Data as given in patent US7432388B2 (Allergan, Inc., priority 2003, dated 2008).

Experiments:
RARα [1] = molecular target: T1, RARα (Homo sapiens, UniProt P10276); assay: chimeric receptor transactivation assay (agonist-like activity); assay type: cell-based; design: RAR EC50 (nM) (% Efficiency) α; conditions: read-out: RAR EC50 (nM) (% Efficiency) α
T1 sequence (P10276 183-417 limits assumed): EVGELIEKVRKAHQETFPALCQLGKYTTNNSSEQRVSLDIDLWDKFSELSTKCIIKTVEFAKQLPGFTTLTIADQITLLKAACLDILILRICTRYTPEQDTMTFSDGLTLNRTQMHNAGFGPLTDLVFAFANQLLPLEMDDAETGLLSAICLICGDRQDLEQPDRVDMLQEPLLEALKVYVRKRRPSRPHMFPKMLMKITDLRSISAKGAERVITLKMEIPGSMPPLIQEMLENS
Protocol: Specifically, one assay in which the compounds were tested is a chimeric receptor transactivation assay which tests for agonist-like activity in the RARα, RARγ and RARγ receptor subtypes, and which is based on work published by Feigner P. L. and Holm M (1989) Focus, 112 is described in detail in U.S. Pat. No. 5,455,265. The specification of U.S. Pat. No. 5,455,265 is hereby expressly incorporated by reference.
(§1) A holoreceptor transactivation assay and a ligand binding assay which measure the antagonist/agonist like activity of the compounds of the invention, or their ability to bind to the several retinoid receptor subtypes, respectively, are described in published PCT Application No. WO WO93/11755 (particularly on pages 30-33 and 37-41) published on Jun. 24, 1993, the specification of which is also incorporated herein by reference. A detailed experimental procedure for holoreceptor transactivations has been described by Heyman et al. Cell 68, 397-406, (1992); Allegretto et al. J. Biol. Chem. 268, 26625-26633, and Mangelsdorf et al. The Retinoids: Biology, Chemistry and Medicine, pp 319-349, Raven Press Ltd., New York, which are expressly incorporated herein by reference. The results obtained in this assay are expressed in EC50 numbers, as they are also in the chimeric receptor transactivation assay. The other functional assay running in the presence of 1 nM all-trans retinoic acid, namely PGA-RAR antagonist assay (utilizing glucocorticoid-retinoid chimeric receptors), is a modified chimeric receptor transactivation assay which tests the compounds for their antagonist-like activity in the RARα, RARγ and RARγ receptor subtypes. The results from this assay are normally expressed in IC50 numbers (See Teng et al. J. Med. Chem. 40, 2445-2452, (1997) incorporated herein by reference.)

RARγ = molecular target: T2, RARγ (Homo sapiens, UniProt P13631); assay: as above; assay type: cell-based; design: RAR EC50 (nM) (% Efficiency) γ; conditions: read-out: RAR EC50 (nM) (% Efficiency) γ
T2 sequence (P13631 185-419 limits assumed): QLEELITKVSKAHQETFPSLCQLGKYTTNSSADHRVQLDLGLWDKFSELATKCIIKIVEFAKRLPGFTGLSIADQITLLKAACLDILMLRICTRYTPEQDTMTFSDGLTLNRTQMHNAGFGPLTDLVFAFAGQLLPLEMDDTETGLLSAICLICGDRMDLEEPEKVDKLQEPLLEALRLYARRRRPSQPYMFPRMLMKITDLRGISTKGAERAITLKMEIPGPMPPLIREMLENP

RARα [2] = molecular target: T1, RARα; assay: PGA-RAR antagonist assay (glucocorticoid-retinoid chimeric receptors); assay type: cell-based; design: other: in the presence of 1 nM all-trans retinoic acid; fused on or other part: Glucocorticoid receptor DNA-recognition part in place of RAR's own; conditions: in the presence of 1 nM all-trans retinoic acid; read-out: RAR IC50 (nM) (% Inhibition) α
From the text: as §1
Percentage inhibition in an antagonist assay is expressed as a percentage of the maximum inhibition of the transaction activity induced by 1 nM all-trans retinoic acid.

RARα [3] = molecular target: T3, RARα (Homo sapiens, UniProt P10276); assay: ligand binding assay; conditions: expressed in Ki numbers, read-out: RAR Binding α
T3 sequence (P10276 1-462): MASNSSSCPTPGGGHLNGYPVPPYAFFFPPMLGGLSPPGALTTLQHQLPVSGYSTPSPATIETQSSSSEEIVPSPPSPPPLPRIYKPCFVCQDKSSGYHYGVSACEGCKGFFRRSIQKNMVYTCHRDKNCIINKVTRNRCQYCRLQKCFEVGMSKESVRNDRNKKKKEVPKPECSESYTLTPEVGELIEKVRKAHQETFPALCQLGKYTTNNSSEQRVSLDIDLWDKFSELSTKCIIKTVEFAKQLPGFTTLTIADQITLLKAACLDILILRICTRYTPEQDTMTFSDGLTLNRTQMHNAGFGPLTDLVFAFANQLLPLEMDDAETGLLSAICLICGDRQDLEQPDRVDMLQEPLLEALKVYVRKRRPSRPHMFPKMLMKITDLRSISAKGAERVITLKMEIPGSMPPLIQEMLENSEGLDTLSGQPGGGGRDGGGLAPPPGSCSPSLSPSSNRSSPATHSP
From the text: as §1
(§2) The results of the ligand binding assay are expressed in Ki numbers. (See Cheng et al. Biochemical Pharmacology Vol. 22 pp 3099-3108, expressly incorporated herein by reference.)

RARβ = molecular target: T4, RARβ (Homo sapiens, UniProt P10826); assay: ligand binding assay; conditions: expressed in Ki numbers, read-out: RAR Binding β
T4 sequence (P10826 1-455): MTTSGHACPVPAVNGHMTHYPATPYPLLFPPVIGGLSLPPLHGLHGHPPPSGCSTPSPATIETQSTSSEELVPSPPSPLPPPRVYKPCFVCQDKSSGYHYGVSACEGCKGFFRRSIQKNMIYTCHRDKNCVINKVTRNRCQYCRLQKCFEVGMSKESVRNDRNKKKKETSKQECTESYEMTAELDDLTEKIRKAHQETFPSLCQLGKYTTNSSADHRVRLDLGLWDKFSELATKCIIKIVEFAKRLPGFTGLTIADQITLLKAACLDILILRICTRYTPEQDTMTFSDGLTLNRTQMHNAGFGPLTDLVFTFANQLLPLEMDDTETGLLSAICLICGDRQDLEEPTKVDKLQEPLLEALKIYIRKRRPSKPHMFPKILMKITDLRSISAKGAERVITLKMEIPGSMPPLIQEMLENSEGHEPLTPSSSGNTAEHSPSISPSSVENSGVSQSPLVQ
From the text: as §1, §2

Structure (SMILES) | EC50 (RARα [1]) [nM] | EC50 (RARγ) [nM] | IC50 (RARα [2]) [nM] | Ki (RARα [3]) [µM] | Ki (RARβ) [µM]
Cc1ccc(C2=CCC(C)(C)c3cc(C(/C=C/c4ccc(C(=O)O)cc4)=NO)ccc32)cc1 (racemic) [Compound 7c, 4-[3-(8,8-Dimethyl-5-p-tolyl-7,8-dihydro-naphthalen-2-yl)-3-hydroxyimino-propenyl]-benzoic acid] | > 10000 | > 10000 | > 50000 | 2.9 | 1.3
Cc1ccc(C2=CCC(C)(C)c3cc(C(/C=C/c4ccc(C(=O)O)cc4)=N/O)ccc32)cc1 [Compound 7a, E-4-[3-(8,8-Dimethyl-5-p-tolyl-7,8-dihydro-naphthalen-2-yl)-3-hydroxyimino-propenyl]-benzoic acid] | > 10000 | > 10000 | > 1000 | 3 | 5
Cc1ccc(C2=CCC(C)(C)c3cc(C(/C=C/c4ccc(C(=O)O)cc4)=N\O)ccc32)cc1 [Compound 7b, Z-4-[3-(8,8-dimethyl-5-p-tolyl-7,8-dihydro-naphthalen-2-yl)-3-hydroxyimino-propenyl]-benzoic acid] | > 10000 | > 10000 | > 1000 | 5.2 | 1.9
Cc1ccc(C2=CCC(C)(C)c3cc(C(/C=C/c4ccc(C(=O)O)cc4F)=N/O)ccc32)cc1 [Compound 9a, E-4-[3-(8,8-Dimethyl-5-p-tolyl-7,8-dihydro-naphthalen-2-yl)-3-hydroxyimino-propenyl]-3-fluoro-benzoic acid] | > 10000 | > 10000 | > 1000 | 13 | 15
Cc1ccc(C2=CCC(C)(C)c3cc(C(/C=C/c4ccc(C(=O)O)cc4F)=N\O)ccc32)cc1 [Compound 9b, Z-4-[3-(8,8-Dimethyl-5-p-tolyl-7,8-dihydro-naphthalen-2-yl)-3-hydroxyimino-propenyl]-3-fluoro-benzoic acid] | > 10000 | > 10000 | > 1000 | 13 | 10

Further lines, results first:

EC50 (RARα [1]) [nM] | EC50 (RARγ) [nM] | IC50 (RARα [2]) [nM] | Ki (RARα [3]) [µM] | Ki (RARβ) [µM] | Structure (SMILES)
> 10000 | > 10000 | > 1000 | 9 | 10 | Cc1ccc(C2=CC(C)(C)c3cc(C(/C=C/c4ccc(C(=O)O)cc4)=N/O)ccc32)cc1 [Compound 16a]
> 10000 | > 10000 | > 1000 | 7 | 10 | Cc1ccc(C2=CC(C)(C)c3cc(C(/C=C/c4ccc(C(=O)O)cc4)=N\O)ccc32)cc1 [Compound 16b]
> 10000 | > 10000 | > 1000 | 12 | 10 | Cc1ccc(C2=CC(C)(C)c3cc(C(/C=C/c4ccc(C(=O)O)cc4F)=N/O)ccc32)cc1 [Compound 18a, E-4-[3-(3,3-Dimethyl-1-p-tolyl-3H-inden-5-yl)-3-hydroxyimino-propenyl]-3-fluoro-benzoic acid]
> 10000 | > 10000 | > 1000 | 23 | 10 | Cc1ccc(C2=CC(C)(C)c3cc(C(/C=C/c4ccc(C(=O)O)cc4F)=N\O)ccc32)cc1 [Compound 18b, Z-4-[3-(3,3-Dimethyl-1-p-tolyl-3H-inden-5-yl)-3-hydroxyimino-propenyl]-3-fluoro-benzoic acid]
